Converted amounts (≈) assume the structure as drawn. The source made the active and inactive calls. The rule behind the calls is not given here.
Key:
[1] = test system: Human immunodeficiency virus 1; assay: Antiviral activity against wild type HIV-1 IIIB infected in human MT4 cells assessed as inhibition of virus-induced cytopathic effect measured after 5 days by MTT assay; assay type: functional, organism-based; settings: Human immunodeficiency virus 1, IIIB, MT4, 120 h
[2] = Cytotoxicity against mock-infected human MT4 cells incubated for 5 days by MTT assay; assay type: cell-based; settings: time 5 day
[3] = Selectivity index, ratio of CC50 for human MT4 cells to EC50 for Antiviral activity against HIV-1 IIIB infected in human MT4 cells; assay type: toxicity, cell-based; settings: read-out: Selectivity Index
MT4 = assay: Antiviral activity against wild type HIV-2 ROD infected in human MT4 cells assessed as inhibition of virus-induced cytopathic effect measured after 5 days by MTT assay; assay type: functional, cell-based; settings: Human immunodeficiency virus 2, ISOLATE ROD, time 5.0 day
[4] = test system: Human immunodeficiency virus 1; assay: Antiviral activity against HIV1 harboring RT L100I mutant infected in human MT4 cells assessed as inhibition of virus-induced cytopathic effect incubated for 5 days by MTT assay; assay type: functional, organism-based; settings: Human immunodeficiency virus 1, MT4, 120 h
[5] = test system: Human immunodeficiency virus 1; assay: Antiviral activity against HIV1 harboring K103N mutant infected in human MT4 cells assessed as inhibition of virus-induced cytopathic effect incubated for 5 days by MTT assay; assay type: functional, organism-based; settings: Human immunodeficiency virus 1, MT4, 120 h
[6] = test system: Human immunodeficiency virus 1; assay: Antiviral activity against HIV1 harboring RT Y181C mutant infected in human MT4 cells assessed as inhibition of virus-induced cytopathic effect incubated for 5 days by MTT assay; assay type: functional, organism-based; settings: Human immunodeficiency virus 1, MT4, 120 h
[7] = test system: Human immunodeficiency virus 1; assay: Antiviral activity against HIV1 harboring RT Y188L mutant infected in human MT4 cells assessed as inhibition of virus-induced cytopathic effect incubated for 5 days by MTT assay; assay type: functional, organism-based; settings: Human immunodeficiency virus 1, MT4, 120 h
[8] = test system: Human immunodeficiency virus 1; assay: Antiviral activity against HIV1 harboring RT E138K mutant infected in human MT4 cells assessed as inhibition of virus-induced cytopathic effect incubated for 5 days by MTT assay; assay type: functional, organism-based; settings: Human immunodeficiency virus 1, MT4, 120 h
[9] = test system: Human immunodeficiency virus 1; assay: Antiviral activity against HIV1 harboring RT F227L/V106A mutant infected in human MT4 cells assessed as inhibition of virus-induced cytopathic effect incubated for 5 days by MTT assay; assay type: functional, organism-based; settings: Human immunodeficiency virus 1, MT4, 120 h
[10] = test system: Human immunodeficiency virus 1; assay: Antiviral activity against HIV1 harboring RT RES056 mutant infected in human MT4 cells assessed as inhibition of virus-induced cytopathic effect incubated for 5 days by MTT assay; assay type: functional, organism-based; settings: Human immunodeficiency virus 1, MT4, 120 h
[11] = target: Human immunodeficiency virus type 1 reverse transcriptase (Human immunodeficiency virus 1, UniProt Q72547); assay: Inhibition of HIV-1 reverse transcriptase assessed as inhibition of biotin-dUTP incorporation into cDNA measured after 1 hr by ELISA
[12] = Water solubility of compound at pH 2; assay type: physicochemical
[13] = Water solubility of compound at pH 7; assay type: physicochemical
[14] = Water solubility of compound at pH 7.4; assay type: physicochemical

Structure (SMILES)	EC50 [1]	CC50 at 120 h [2]	selectivity ratio [3]	Activity (MT4)	EC50 [4]	EC50 [5]	EC50 [6]	EC50 [7]	EC50 [8]	EC50 [9]	EC50 [10]	IC50 [11]	solubility [12]	solubility [13]	solubility [14]
Cc1cc(C#CC=C2CCNCC2)cc(C)c1Oc1ccnc(Nc2ccc(C#N)cc2)n1	16 nM	4810 nM	294	inactive	231 nM	39 nM	281 nM	211 nM	204 nM	1270 nM	1460 nM	130 nM	47.3 µg/mL (≈ 109 µM)	60.5 µg/mL (≈ 139 µM)	67 µg/mL (≈ 154 µM)
Cc1cc(C#CC=C2CCN(S(=O)(=O)C3CC3)CC2)cc(C)c1Oc1ccnc(Nc2ccc(C#N)cc2)n1	98 nM	4660 nM	47	inactive	> 4660 nM	284 nM	> 4660 nM	1410 nM	685 nM	> 4660 nM	> 4660 nM	–	–	–	–
COC(=O)c1ccc(CN2CCC(=CC#Cc3cc(C)c(Oc4ccnc(Nc5ccc(C#N)cc5)n4)c(C)c3)CC2)cc1	656 nM	33600 nM	51	inactive	> 33600 nM	782 nM	> 33600 nM	> 33600 nM	5460 nM	> 33600 nM	> 33600 nM	–	–	–	–
Cc1cc(C#CC=C2CCN(C(=O)OC(C)(C)C)CC2)cc(C)c1Oc1ccnc(Nc2ccc(C#N)cc2)n1	643 nM	16700 nM	26	inactive	984 nM	> 56700 nM	> 56700 nM	5560 nM	> 56700 nM	> 56700 nM	> 56700 nM	–	–	–	–
CCC(=O)N1CCC(=CC#Cc2cc(C)c(Oc3ccnc(Nc4ccc(C#N)cc4)n3)c(C)c2)CC1	22 nM	4420 nM	201	inactive	253 nM	57 nM	772 nM	382 nM	171 nM	1300 nM	> 4420 nM	2980 nM	64.7 µg/mL (≈ 132 µM)	62.2 µg/mL (≈ 127 µM)	66.5 µg/mL (≈ 135 µM)
Cc1cc(C#N)cc(C)c1Oc1nc(Nc2ccc(C#N)cc2)nc(N)c1Br [ETRAVIRINE]	–	> 4610 nM	–	inactive	8 nM	–	20 nM	21 nM	19 nM	20 nM	67 nM	–	< 1 µg/mL	–	–
Cc1cc(C#CC=C2CCN(Cc3ccccc3C#N)CC2)cc(C)c1Oc1ccnc(Nc2ccc(C#N)cc2)n1	376 nM	> 227000 nM	> 604	inactive	8540 nM	1010 nM	20400 nM	16100 nM	5460 nM	> 42400 nM	> 227000 nM	–	–	–	–
Cc1cc(C#CC=C2CCN(Cc3ccccn3)CC2)cc(C)c1Oc1ccnc(Nc2ccc(C#N)cc2)n1	74 nM	5580 nM	75	inactive	> 5580 nM	200 nM	4250 nM	1030 nM	805 nM	> 5580 nM	> 5580 nM	–	–	–	–
CCS(=O)(=O)N1CCC(=CC#Cc2cc(C)c(Oc3ccnc(Nc4ccc(C#N)cc4)n3)c(C)c2)CC1	79 nM	4960 nM	62	inactive	1080 nM	165 nM	> 1350 nM	1280 nM	493 nM	> 4960 nM	> 4960 nM	–	–	–	–
C=CC(=O)N1CCC(=CC#Cc2cc(C)c(Oc3ccnc(Nc4ccc(C#N)cc4)n3)c(C)c2)CC1	35 nM	4100 nM	116	inactive	345 nM	46 nM	1100 nM	409 nM	240 nM	> 4100 nM	> 4100 nM	–	–	–	–
Cc1cc(C#CC=C2CCN(C(=O)N(C)C)CC2)cc(C)c1Oc1ccnc(Nc2ccc(C#N)cc2)n1	35 nM	4430 nM	125	inactive	617 nM	86 nM	799 nM	521 nM	265 nM	> 4430 nM	> 4430 nM	–	–	–	–
Cc1cc(C#CC=C2CCN(S(C)(=O)=O)CC2)cc(C)c1Oc1ccnc(Nc2ccc(C#N)cc2)n1	29 nM	5490 nM	186	inactive	282 nM	57 nM	913 nM	452 nM	170 nM	> 5490 nM	> 5490 nM	1980 nM	20.4 µg/mL (≈ 39.7 µM)	27.1 µg/mL (≈ 52.8 µM)	26.6 µg/mL (≈ 51.8 µM)
CCOC(=O)CN1CCC(=CC#Cc2cc(C)c(Oc3ccnc(Nc4ccc(C#N)cc4)n3)c(C)c2)CC1	7050 nM	201000 nM	29	inactive	> 201000 nM	39000 nM	> 201000 nM	> 201000 nM	> 201000 nM	> 201000 nM	> 201000 nM	–	–	–	–
Cc1cc(C#CC=C2CCN(Cc3cccc([N+](=O)[O-])c3)CC2)cc(C)c1Oc1ccnc(Nc2ccc(C#N)cc2)n1	187 nM	74600 nM	399	inactive	2770 nM	510 nM	5550 nM	5330 nM	2150 nM	26700 nM	> 74600 nM	–	–	–	–
Nc1ccn([C@H]2CS[C@@H](CO)O2)c(=O)n1	5230 nM	> 87200 nM	> 309	inactive	1150 nM	2790 nM	3400 nM	4560 nM	8270 nM	2170 nM	5060 nM	–	–	–	–
Cc1cc(C#CC=C2CCN(S(=O)(=O)C(C)C)CC2)cc(C)c1Oc1ccnc(Nc2ccc(C#N)cc2)n1	171 nM	4580 nM	27	inactive	> 4580 nM	573 nM	> 4580 nM	> 4580 nM	918 nM	> 4580 nM	> 4580 nM	–	–	–	–
Cc1cn([C@H]2C[C@H](N=[N+]=[N-])[C@@H](CO)O2)c(=O)[nH]c1=O [ZIDOVUDINE]	21 nM	> 7480 nM	> 352	inactive	9 nM	22 nM	15 nM	12 nM	35 nM	10 nM	24 nM	–	–	–	–
Cc1cc(C#CC=C2CCN(S(=O)(=O)N(C)C)CC2)cc(C)c1Oc1ccnc(Nc2ccc(C#N)cc2)n1	114 nM	4790 nM	42	inactive	> 4790 nM	209 nM	> 4790 nM	> 4790 nM	750 nM	> 4790 nM	> 4790 nM	–	–	–	–
Cc1ccnc2c1NC(=O)c1cccnc1N2C1CC1 [NEVIRAPINE]	160 nM	> 15000 nM	> 94	inactive	2520 nM	6550 nM	10500 nM	> 15000 nM	258 nM	> 15000 nM	> 15000 nM	–	–	–	–
O=C1Nc2ccc(Cl)cc2[C@@](C#CC2CC2)(C(F)(F)F)O1 [EFAVIRENZ]	–	> 6350 nM	–	inactive	37 nM	103 nM	6 nM	212 nM	7 nM	–	332 nM	–	–	–	–

— ChEMBL document CHEMBL4811290, “Exploiting the hydrophobic channel of the NNIBP: Discovery of novel diarylpyrimidines as HIV-1 NNRTIs against wild-type and K103N mutant viruses” (Bioorg Med Chem, 2021)
